Measured values published in publication PMC4414788 (Chemico-biological interactions, 2015).

Legend:
ALDH2 = molecular target: T1, ALDH2 (Homo sapiens, UniProt P05091); experiment: propionaldehyde dehydrogenase assay; format: biochemical; details: read-out: ALDH2
T1 sequence (P05091 18-517): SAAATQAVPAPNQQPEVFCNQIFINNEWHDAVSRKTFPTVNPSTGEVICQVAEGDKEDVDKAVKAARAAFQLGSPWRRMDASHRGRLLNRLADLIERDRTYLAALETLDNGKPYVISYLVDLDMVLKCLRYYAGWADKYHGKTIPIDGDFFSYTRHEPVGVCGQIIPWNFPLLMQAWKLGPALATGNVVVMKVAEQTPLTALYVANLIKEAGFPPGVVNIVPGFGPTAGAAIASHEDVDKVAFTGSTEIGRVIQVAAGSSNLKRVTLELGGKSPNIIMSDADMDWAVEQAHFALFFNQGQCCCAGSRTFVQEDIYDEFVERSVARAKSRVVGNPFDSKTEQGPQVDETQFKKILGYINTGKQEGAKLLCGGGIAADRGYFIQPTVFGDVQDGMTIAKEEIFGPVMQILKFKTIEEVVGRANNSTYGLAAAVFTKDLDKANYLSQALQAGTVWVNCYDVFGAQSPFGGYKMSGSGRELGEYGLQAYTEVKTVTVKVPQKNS

ALDH1A3 = molecular target: T2, ALDH1A3 (Homo sapiens, UniProt P47895); experiment: propionaldehyde dehydrogenase assay; format: biochemical; details: read-out: % inhibition at 10 μM
T2 sequence (P47895 2-512): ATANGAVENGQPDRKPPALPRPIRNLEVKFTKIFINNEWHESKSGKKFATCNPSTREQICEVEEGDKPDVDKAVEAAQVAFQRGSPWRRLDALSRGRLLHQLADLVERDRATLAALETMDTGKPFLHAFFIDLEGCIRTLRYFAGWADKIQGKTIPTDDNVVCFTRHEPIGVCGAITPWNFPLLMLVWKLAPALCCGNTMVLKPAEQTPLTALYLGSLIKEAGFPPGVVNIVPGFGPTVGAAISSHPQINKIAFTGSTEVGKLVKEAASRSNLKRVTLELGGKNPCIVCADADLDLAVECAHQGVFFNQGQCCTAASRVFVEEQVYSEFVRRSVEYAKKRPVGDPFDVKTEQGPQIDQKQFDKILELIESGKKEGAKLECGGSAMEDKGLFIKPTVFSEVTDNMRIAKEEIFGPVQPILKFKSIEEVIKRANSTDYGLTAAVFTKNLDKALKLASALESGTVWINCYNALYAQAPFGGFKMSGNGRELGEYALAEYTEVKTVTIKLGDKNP

ALDH1A2 = molecular target: T3, ALDH1A2 (Homo sapiens, UniProt O94788); experiment: propionaldehyde dehydrogenase assay; format: biochemical; details: read-out: % inhibition at 10 μM
T3 sequence (O94788 1-518): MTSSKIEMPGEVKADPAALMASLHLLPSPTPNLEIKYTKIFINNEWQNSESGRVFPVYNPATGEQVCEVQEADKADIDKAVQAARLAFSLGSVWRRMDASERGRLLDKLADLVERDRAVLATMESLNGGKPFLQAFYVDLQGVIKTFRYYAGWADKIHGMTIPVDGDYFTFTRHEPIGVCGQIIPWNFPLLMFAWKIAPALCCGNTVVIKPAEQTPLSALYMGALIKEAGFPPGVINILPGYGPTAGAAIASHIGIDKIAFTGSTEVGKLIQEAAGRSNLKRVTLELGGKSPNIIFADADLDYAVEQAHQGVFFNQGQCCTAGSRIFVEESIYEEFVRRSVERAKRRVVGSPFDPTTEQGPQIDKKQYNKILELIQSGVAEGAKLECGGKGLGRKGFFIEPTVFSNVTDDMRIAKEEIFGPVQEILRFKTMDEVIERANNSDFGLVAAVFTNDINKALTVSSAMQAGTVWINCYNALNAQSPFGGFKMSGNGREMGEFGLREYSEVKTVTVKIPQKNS

ALDH1A1 [1] = molecular target: T4, ALDH1A1 (Homo sapiens, UniProt P00352, N121S); experiment: propionaldehyde dehydrogenase assay; format: biochemical; details: read-out: ALDH1A1 ^*
T4 sequence (P00352 2-501 N121S): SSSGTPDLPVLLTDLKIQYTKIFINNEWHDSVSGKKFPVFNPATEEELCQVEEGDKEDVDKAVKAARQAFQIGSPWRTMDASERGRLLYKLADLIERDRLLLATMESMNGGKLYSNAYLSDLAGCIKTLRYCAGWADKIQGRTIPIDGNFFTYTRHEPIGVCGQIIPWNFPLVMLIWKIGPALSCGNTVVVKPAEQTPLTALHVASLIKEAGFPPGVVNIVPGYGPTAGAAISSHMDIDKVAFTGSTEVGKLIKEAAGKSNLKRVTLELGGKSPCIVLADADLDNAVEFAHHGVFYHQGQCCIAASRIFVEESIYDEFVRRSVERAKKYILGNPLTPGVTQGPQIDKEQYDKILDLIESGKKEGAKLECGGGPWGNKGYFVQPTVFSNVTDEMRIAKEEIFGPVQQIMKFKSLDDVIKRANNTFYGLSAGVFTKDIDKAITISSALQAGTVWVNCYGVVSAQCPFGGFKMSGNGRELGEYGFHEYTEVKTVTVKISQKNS

ALDH1B1 = molecular target: T5, ALDH1B1 (Homo sapiens, UniProt P30837); experiment: propionaldehyde dehydrogenase assay; format: biochemical; details: read-out: % inhibition at 10 μM
T5 sequence (P30837 18-517): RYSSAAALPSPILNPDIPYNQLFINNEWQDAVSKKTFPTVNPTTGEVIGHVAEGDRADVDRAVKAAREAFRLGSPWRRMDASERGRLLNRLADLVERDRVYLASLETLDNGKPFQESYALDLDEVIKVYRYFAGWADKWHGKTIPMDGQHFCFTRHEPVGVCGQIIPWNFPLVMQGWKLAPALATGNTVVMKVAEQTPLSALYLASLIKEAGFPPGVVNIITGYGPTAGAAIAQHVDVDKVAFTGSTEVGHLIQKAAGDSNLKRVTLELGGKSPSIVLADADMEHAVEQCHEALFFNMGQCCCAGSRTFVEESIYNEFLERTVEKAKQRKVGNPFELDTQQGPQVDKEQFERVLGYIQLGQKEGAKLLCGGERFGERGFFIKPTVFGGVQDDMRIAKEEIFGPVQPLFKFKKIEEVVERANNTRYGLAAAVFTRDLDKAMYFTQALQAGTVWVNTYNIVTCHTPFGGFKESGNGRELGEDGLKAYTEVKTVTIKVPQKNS

ALDH3A1 = molecular target: T6, ALDH3A1 (Homo sapiens, UniProt P30838); experiment: biochemical; details: read-out: % of control remaining
T6 sequence (P30838 1-453): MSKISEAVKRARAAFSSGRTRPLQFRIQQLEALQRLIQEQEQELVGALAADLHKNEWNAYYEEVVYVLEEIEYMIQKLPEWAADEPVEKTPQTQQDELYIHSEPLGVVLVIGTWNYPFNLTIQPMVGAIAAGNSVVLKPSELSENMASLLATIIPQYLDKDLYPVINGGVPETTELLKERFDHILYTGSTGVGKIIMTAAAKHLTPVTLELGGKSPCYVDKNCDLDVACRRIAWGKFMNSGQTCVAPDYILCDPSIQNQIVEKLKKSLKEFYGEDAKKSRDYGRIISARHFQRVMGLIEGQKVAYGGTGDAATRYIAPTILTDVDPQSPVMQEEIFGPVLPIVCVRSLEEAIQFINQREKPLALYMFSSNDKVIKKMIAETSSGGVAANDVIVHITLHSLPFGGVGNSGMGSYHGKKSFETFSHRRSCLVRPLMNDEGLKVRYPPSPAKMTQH

ALDH1A1 [2] = molecular target: T4, ALDH1A1; experiment: biochemical; details: read-out: % of control remaining

| Structure (SMILES) | activity at 10 µM (ALDH2) | inhibition at 10 µM (ALDH1A3) | inhibition at 10 µM (ALDH1A2) | activity at 10 µM (ALDH1A1 [1]) | inhibition at 10 µM (ALDH1B1) | remaining activity at 10 µM (ALDH3A1) | remaining activity at 10 µM (ALDH1A1 [2]) |
| --- | --- | --- | --- | --- | --- | --- | --- |
| CCCc1c(C)c2cc3c(C)c(C)oc3cc2oc1=O [2P3, 2,3,5-trimethyl-6-propyl-7H-furo[3,2-g]chromen-7-one] | 1.5% | > 60% | > 60% | 40.8% | > 60% |  |  |
| COC(=O)C(C)Oc1ccc2c(C)cc(=O)oc2c1 (centres unmarked) [2BS4, methyl-2-[(4-methyl-2-oxo-2H-chromen-7-yl)oxy]propanoate] | 10.3% |  |  |  |  |  |  |
| CCCc1c(C)c2cc3c(C)coc3cc2oc1=O [2CB5, 3,5-dimethyl-6-propylfuro[3,2-g]chromen-7-one] | 7.6% |  |  | 58.6% |  | 87.6% |  |
| Cc1oc2cc3oc(=O)c(C)c(C)c3cc2c1C [2P4, 2,3,5,6-tetramethylfuro[3,2-g]chromen-7-one] |  |  |  |  |  | 87.8% | 89.3% |
